Measured values: patent publication US8148373B2, “Compounds” (AstraZeneca AB, priority 2008, dated 2012)

Key:
[1] = target: T1, Adrenergic β2 (H292 cells) (Homo sapiens, UniProt P07550); test: Adrenergic β2 Mediated cAMP Production, single concentration 1 μM; assay type: cell-based; conditions: NCI-H292, 1 μM compound, percentage of the maximum response generated by 1E-07M formoterol, read-out: β2 (% effect at 1 μM)
T1 construct: endogenous in cells; host or cells: H292 cells
In short: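 H292 cells were plated overnight, pre-treated with 300 μM rolipram for 10 min, then exposed to compound at 1 μM final (1% DMSO) for 60 min at room temperature. cAMP in the lysates was measured by AlphaScreen against a standard curve and expressed as % of the maximal response to 1E-07M formoterol.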

[2] = target: T2, human muscarinic acetylcholine M3 receptor (M3-ACh) (Homo sapiens, UniProt P20309); test: Muscarinic 3 Receptor Binding Assay, % inhibition specific binding at 1 μM; conditions: 1 μM compound, % inhibition specific [3H]-NMS binding
T2 construct: expressed in transfected cells; host or cells: CHO-K1 (Chinese Hamster Ovary) cell membranes
T2 sequence (P20309 whole entry): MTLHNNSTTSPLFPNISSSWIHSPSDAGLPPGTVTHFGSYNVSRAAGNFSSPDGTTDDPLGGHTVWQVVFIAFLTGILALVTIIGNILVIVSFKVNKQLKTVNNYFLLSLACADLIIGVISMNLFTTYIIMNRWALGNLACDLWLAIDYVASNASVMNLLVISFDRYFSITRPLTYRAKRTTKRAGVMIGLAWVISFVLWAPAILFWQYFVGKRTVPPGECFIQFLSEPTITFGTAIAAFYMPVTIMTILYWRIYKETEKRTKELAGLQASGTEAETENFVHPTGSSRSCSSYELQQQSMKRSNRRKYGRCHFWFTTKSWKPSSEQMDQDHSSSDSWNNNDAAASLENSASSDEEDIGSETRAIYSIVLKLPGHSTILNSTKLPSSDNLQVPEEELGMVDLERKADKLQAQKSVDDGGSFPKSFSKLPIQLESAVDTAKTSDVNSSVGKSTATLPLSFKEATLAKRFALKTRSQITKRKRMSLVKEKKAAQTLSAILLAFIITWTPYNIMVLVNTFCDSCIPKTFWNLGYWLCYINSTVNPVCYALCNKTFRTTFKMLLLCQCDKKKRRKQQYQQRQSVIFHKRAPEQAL
In short: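 Competition binding of 0.1 nM [3H]NMS to membranes from CHO-K1 cells expressing human M3, SPA format, with compound at 1 μM in 20 mM HEPES pH 7.4, 5 mM MgCl2, 1% DMSO. Incubated 16 h at room temperature; non-specific binding defined by 1 μM atropine; value is % inhibition of specific binding.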

T1 sequence (P07550 whole entry): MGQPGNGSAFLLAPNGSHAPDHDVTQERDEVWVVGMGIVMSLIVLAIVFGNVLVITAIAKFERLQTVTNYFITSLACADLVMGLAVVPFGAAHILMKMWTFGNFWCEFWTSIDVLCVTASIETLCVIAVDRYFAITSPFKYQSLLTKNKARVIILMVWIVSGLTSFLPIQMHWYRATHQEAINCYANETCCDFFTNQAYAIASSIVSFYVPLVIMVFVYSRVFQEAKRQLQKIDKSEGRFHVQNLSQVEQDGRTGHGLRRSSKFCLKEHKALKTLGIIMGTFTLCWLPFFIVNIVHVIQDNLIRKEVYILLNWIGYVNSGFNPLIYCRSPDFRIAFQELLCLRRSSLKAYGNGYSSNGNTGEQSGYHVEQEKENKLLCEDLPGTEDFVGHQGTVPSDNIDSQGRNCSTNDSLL

Row | SMILES | activation at 1 µM [1] [%] | inhibition at 1 µM [2] [%]
1 | O=C(c1cc2cc(Cl)ccc2o1)N1CCOC2(CCN(Cc3cc(F)cc(CCNC[C@H](O)c4ccc(O)c5[nH]c(=O)sc45)c3)CC2)C1 [Example 182, (R)-7-(2-(3-((4-(5-chlorobenzofuran-2-carbonyl)-1-oxa-4,9-diazaspiro[5.5]undecan-9-yl)methyl)-5-fluorophenethylamino)-1-hydroxyethyl)-4-hydroxybenzo[d]thiazol-2(3H)-one] | 88 | 16
2 | O=C(CCCc1cccs1)N1CCOC2(CCN(CCCCCCCCCNC[C@H](O)c3ccc(O)c4[nH]c(=O)sc34)CC2)C1 [Example 183, (R)-4-hydroxy-7-(1-hydroxy-2-(9-(4-(4-(thiophen-2-yl)butanoyl)-1-oxa-4,9-diazaspiro[5.5]undecan-9-yl)nonylamino)ethyl)benzo[d]thiazol-2(3H)-one] | 91 | 97
3 | Cn1cccc1C(=O)N1CCOC2(CCN(CCCCCCCCCNC[C@H](O)c3ccc(O)c4[nH]c(=O)sc34)CC2)C1 [Example 184, (R)-4-hydroxy-7-(1-hydroxy-2-(9-(4-(1-methyl-1H-pyrrole-2-carbonyl)-1-oxa-4,9-diazaspiro[5.5]undecan-9-yl)nonylamino)ethyl)benzo[d]thiazol-2(3H)-one] | 89 | 96
4 | O=C(Cc1cccs1)N1CCOC2(CCN(CCCCCCCCCNC[C@H](O)c3ccc(O)c4[nH]c(=O)sc34)CC2)C1 [Example 185, (R)-4-hydroxy-7-(1-hydroxy-2-(9-(4-(2-(thiophen-2-yl)acetyl)-1-oxa-4,9-diazaspiro[5.5]undecan-9-yl)nonylamino)ethyl)benzo[d]thiazol-2(3H)-one] | 81 | 95
5 | O=C(Cc1ccccc1)N1CCOC2(CCN(CCCCCCCCCNC[C@H](O)c3ccc(O)c4[nH]c(=O)sc34)CC2)C1 [Example 186, (R)-4-hydroxy-7-(1-hydroxy-2-(9-(4-(2-phenylacetyl)-1-oxa-4,9-diazaspiro[5.5]undecan-9-yl)nonylamino)ethyl)benzo[d]thiazol-2(3H)-one] | 86 | 95
6 | O=C(CCc1ccccc1)N1CCOC2(CCN(CCCCCCCCCNC[C@H](O)c3ccc(O)c4[nH]c(=O)sc34)CC2)C1 [Example 187, (R)-4-hydroxy-7-(1-hydroxy-2-(9-(4-(3-phenylpropanoyl)-1-oxa-4,9-diazaspiro[5.5]undecan-9-yl)nonylamino)ethyl)benzo[d]thiazol-2(3H)-one] | 92 | 84
7 | O=C(CCCc1ccccc1)N1CCOC2(CCN(CCCCCCCCCNC[C@H](O)c3ccc(O)c4[nH]c(=O)sc34)CC2)C1 [Example 188, (R)-4-hydroxy-7-(1-hydroxy-2-(9-(4-(4-phenylbutanoyl)-1-oxa-4,9-diazaspiro[5.5]undecan-9-yl)nonylamino)ethyl)benzo[d]thiazol-2(3H)-one] | 93 | 96
8 | CC(C)(C(=O)N1CCOC2(CCN(CCCCCCCCCNC[C@H](O)c3ccc(O)c4[nH]c(=O)sc34)CC2)C1)c1ccccc1 [Example 189, (R)-4-hydroxy-7-(1-hydroxy-2-(9-(4-(2-methyl-2-phenylpropanoyl)-1-oxa-4,9-diazaspiro[5.5]undecan-9-yl)nonylamino)ethyl)benzo[d]thiazol-2(3H)-one] | 93 | 96
9 | Cc1ccsc1C(=O)N1CCOC2(CCN(CCCCCCCCCNC[C@H](O)c3ccc(O)c4[nH]c(=O)sc34)CC2)C1 [Example 191, (R)-4-hydroxy-7-(1-hydroxy-2-(9-(4-(3-methylthiophene-2-carbonyl)-1-oxa-4,9-diazaspiro[5.5]undecan-9-yl)nonylamino)ethyl)benzo[d]thiazol-2(3H)-one] | 82 | 94
10 | O=C(Cc1ccsc1)N1CCOC2(CCN(CCCCCCCCCNC[C@H](O)c3ccc(O)c4[nH]c(=O)sc34)CC2)C1 [Example 192, (R)-4-hydroxy-7-(1-hydroxy-2-(9-(4-(2-(thiophen-3-yl)acetyl)-1-oxa-4,9-diazaspiro[5.5]undecan-9-yl)nonylamino)ethyl)benzo[d]thiazol-2(3H)-one] | 88 | 96
11 | Cc1ccoc1C(=O)N1CCOC2(CCN(CCCCCCCCCNC[C@H](O)c3ccc(O)c4[nH]c(=O)sc34)CC2)C1 [Example 193, (R)-4-hydroxy-7-(1-hydroxy-2-(9-(4-(3-methylfuran-2-carbonyl)-1-oxa-4,9-diazaspiro[5.5]undecan-9-yl)nonylamino)ethyl)benzo[d]thiazol-2(3H)-one] | 91 | 99
12 | O=C(c1cc2ccccc2s1)N1CCOC2(CCN(CCCCCCCCCNC[C@H](O)c3ccc(O)c4[nH]c(=O)sc34)CC2)C1 [Example 194, (R)-7-(2-(9-(4-(benzo[b]thiophene-2-carbonyl)-1-oxa-4,9-diazaspiro[5.5]undecan-9-yl)nonylamino)-1-hydroxyethyl)-4-hydroxybenzo[d]thiazol-2(3H)-one] | 92 | 85

Results, then the compound that gave them:

Row | activation at 1 µM [1] [%] | inhibition at 1 µM [2] [%] | SMILES
13 | 86 | 88 | Cc1cc(C(=O)N2CCOC3(CCN(CCCCCCCCCNC[C@H](O)c4ccc(O)c5[nH]c(=O)sc45)CC3)C2)oc1C [Example 195, (R)-7-(2-(9-(4-(4,5-dimethylfuran-2-carbonyl)-1-oxa-4,9-diazaspiro[5.5]undecan-9-yl)nonylamino)-1-hydroxyethyl)-4-hydroxybenzo[d]thiazol-2(3H)-one]
14 | 89 | 95 | Cc1cccc(C(=O)N2CCOC3(CCN(CCCCCCCCCNC[C@H](O)c4ccc(O)c5[nH]c(=O)sc45)CC3)C2)n1 [Example 196, (R)-4-hydroxy-7-(1-hydroxy-2-(9-(4-(6-methylpicolinoyl)-1-oxa-4,9-diazaspiro[5.5]undecan-9-yl)nonylamino)ethyl)benzo[d]thiazol-2(3H)-one]
15 | 78 | 97 | Cc1occc1C(=O)N1CCOC2(CCN(CCCCCCCCCNC[C@H](O)c3ccc(O)c4[nH]c(=O)sc34)CC2)C1 [Example 197, (R)-4-hydroxy-7-(1-hydroxy-2-(9-(4-(2-methylfuran-3-carbonyl)-1-oxa-4,9-diazaspiro[5.5]undecan-9-yl)nonylamino)ethyl)benzo[d]thiazol-2(3H)-one]
16 | 91 | 91 | O=C(COc1ccccc1)N1CCOC2(CCN(CCCCCCCCCNC[C@H](O)c3ccc(O)c4[nH]c(=O)sc34)CC2)C1 [Example 199, (R)-4-hydroxy-7-(1-hydroxy-2-(9-(4-(2-phenoxyacetyl)-1-oxa-4,9-diazaspiro[5.5]undecan-9-yl)nonylamino)ethyl)benzo[d]thiazol-2(3H)-one]
17 | 92 | 70 | Cc1ccnn1CC(=O)N1CCOC2(CCN(CCCCCCCCCNC[C@H](O)c3ccc(O)c4[nH]c(=O)sc34)CC2)C1 [Example 200, (R)-4-hydroxy-7-(1-hydroxy-2-(9-(4-(2-(5-methyl-1H-pyrazol-1-yl)acetyl)-1-oxa-4,9-diazaspiro[5.5]undecan-9-yl)nonylamino)ethyl)benzo[d]thiazol-2(3H)-one]
18 | 99 | 94 | O=C(COCc1ccccc1)N1CCOC2(CCN(CCCCCCCCCNC[C@H](O)c3ccc(O)c4[nH]c(=O)sc34)CC2)C1 [Example 203, (R)-7-(2-(9-(4-(2-(benzyloxy)acetyl)-1-oxa-4,9-diazaspiro[5.5]undecan-9-yl)nonylamino)-1-hydroxyethyl)-4-hydroxybenzo[d]thiazol-2(3H)-one]
19 | 101 | 97 | Cc1ccn(CC(=O)N2CCOC3(CCN(CCCCCCCCCNC[C@H](O)c4ccc(O)c5[nH]c(=O)sc45)CC3)C2)n1 [Example 204, (R)-4-hydroxy-7-(1-hydroxy-2-(9-(4-(2-(3-methyl-1H-pyrazol-1-yl)acetyl)-1-oxa-4,9-diazaspiro[5.5]undecan-9-yl)nonylamino)ethyl)benzo[d]thiazol-2(3H)-one]
20 | 85 | 91 | Cc1sccc1C(=O)N1CCOC2(CCN(CCCCCCCCCNC[C@H](O)c3ccc(O)c4[nH]c(=O)sc34)CC2)C1 [Example 205, (R)-4-hydroxy-7-(1-hydroxy-2-(9-(4-(2-methylthiophene-3-carbonyl)-1-oxa-4,9-diazaspiro[5.5]undecan-9-yl)nonylamino)ethyl)benzo[d]thiazol-2(3H)-one]
21 | 95 | 95 | O=C(CCOc1ccccc1)N1CCOC2(CCN(CCCCCCCCCNC[C@H](O)c3ccc(O)c4[nH]c(=O)sc34)CC2)C1 [Example 206, (R)-4-hydroxy-7-(1-hydroxy-2-(9-(4-(3-phenoxypropanoyl)-1-oxa-4,9-diazaspiro[5.5]undecan-9-yl)nonylamino)ethyl)benzo[d]thiazol-2(3H)-one]
22 | 101 | 94 | O=C(CCc1cccs1)N1CCOC2(CCN(CCCCCCCCCNC[C@H](O)c3ccc(O)c4[nH]c(=O)sc34)CC2)C1 [Example 207, (R)-4-hydroxy-7-(1-hydroxy-2-(9-(4-(3-(thiophen-2-yl)propanoyl)-1-oxa-4,9-diazaspiro[5.5]undecan-9-yl)nonylamino)ethyl)benzo[d]thiazol-2(3H)-one]
